Experiment [1] concerns the target Prothrombin (Homo sapiens, UniProt P00734). The class given is functional.
For experiment [2], the target named is Sodium-dependent dopamine transporter (Homo sapiens, UniProt Q01959).
For experiment [3], the target named is T1, 5-hydroxytryptamine receptor 1A (Homo sapiens, UniProt P08908).
T1 sequence (P08908 whole entry): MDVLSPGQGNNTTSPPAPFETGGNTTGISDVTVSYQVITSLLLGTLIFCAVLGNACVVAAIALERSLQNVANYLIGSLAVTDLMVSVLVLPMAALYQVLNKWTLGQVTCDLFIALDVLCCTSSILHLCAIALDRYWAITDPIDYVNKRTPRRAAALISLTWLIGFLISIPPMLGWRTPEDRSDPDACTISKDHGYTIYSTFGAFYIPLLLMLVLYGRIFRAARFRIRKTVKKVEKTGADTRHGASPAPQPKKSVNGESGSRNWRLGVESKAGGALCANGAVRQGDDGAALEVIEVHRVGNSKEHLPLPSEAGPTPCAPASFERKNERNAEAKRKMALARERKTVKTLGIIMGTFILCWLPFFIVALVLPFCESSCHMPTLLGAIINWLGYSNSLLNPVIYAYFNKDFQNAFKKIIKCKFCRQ

The target of experiment [4] is T2, Amine oxidase [flavin-containing] A (Homo sapiens, UniProt P21397).
T2 sequence (P21397 whole entry): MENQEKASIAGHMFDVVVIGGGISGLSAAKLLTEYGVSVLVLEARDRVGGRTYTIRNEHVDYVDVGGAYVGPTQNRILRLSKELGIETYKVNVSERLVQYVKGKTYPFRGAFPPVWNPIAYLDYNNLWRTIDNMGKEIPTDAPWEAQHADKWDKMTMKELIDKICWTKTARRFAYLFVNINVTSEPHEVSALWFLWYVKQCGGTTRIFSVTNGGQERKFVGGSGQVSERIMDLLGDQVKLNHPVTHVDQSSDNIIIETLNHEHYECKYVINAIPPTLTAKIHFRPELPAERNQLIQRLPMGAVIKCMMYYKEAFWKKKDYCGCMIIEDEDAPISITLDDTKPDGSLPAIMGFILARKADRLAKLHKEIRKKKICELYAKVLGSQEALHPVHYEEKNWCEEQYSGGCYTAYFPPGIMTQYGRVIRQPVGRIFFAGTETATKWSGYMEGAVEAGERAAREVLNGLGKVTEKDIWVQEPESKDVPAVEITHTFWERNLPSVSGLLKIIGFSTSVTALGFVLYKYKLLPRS
The class given is functional.

Experiment [5] concerns the target Sodium-dependent noradrenaline transporter (Homo sapiens, UniProt P23975).
Experiment [6] addresses T3, Alpha-2A adrenergic receptor (Homo sapiens, UniProt P08913).
T3 sequence (P08913 whole entry): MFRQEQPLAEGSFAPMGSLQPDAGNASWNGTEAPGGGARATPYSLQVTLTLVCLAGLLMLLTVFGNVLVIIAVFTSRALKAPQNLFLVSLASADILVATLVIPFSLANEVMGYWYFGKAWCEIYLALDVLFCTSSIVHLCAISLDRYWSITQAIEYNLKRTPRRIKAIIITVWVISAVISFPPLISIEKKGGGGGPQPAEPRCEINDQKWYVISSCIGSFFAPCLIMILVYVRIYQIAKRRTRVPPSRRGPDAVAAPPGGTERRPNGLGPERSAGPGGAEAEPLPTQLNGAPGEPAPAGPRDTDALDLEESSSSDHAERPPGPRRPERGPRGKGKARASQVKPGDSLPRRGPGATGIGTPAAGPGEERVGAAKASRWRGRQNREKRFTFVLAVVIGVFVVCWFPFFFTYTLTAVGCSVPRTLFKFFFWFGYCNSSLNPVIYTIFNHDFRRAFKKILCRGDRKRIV

Experiment [7] deals with T4, Muscarinic acetylcholine receptor M2 (Homo sapiens, UniProt P08172).
T4 sequence (P08172 whole entry): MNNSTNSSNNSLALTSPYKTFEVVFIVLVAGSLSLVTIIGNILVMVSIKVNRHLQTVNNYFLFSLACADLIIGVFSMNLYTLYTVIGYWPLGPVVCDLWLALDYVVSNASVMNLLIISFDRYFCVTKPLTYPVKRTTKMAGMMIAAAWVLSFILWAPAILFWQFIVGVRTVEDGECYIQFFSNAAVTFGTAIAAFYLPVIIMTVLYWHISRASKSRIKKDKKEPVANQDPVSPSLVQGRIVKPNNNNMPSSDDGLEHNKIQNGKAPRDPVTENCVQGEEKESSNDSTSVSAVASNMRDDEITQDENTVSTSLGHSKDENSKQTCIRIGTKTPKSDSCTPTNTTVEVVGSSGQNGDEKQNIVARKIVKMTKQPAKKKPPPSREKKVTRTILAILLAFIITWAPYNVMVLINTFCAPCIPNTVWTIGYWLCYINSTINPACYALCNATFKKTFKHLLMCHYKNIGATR

Experiment [8] addresses D(3) dopamine receptor (Homo sapiens, UniProt P35462).
Experiment [9] addresses 3',5'-cyclic-AMP phosphodiesterase 4A (Homo sapiens, UniProt P27815). The class given is functional.
Experiment [10] deals with Prostaglandin G/H synthase 1 (Homo sapiens, UniProt P23219). The class given is functional.
Chain of Prostaglandin G/H synthase 1 (P23219 whole entry): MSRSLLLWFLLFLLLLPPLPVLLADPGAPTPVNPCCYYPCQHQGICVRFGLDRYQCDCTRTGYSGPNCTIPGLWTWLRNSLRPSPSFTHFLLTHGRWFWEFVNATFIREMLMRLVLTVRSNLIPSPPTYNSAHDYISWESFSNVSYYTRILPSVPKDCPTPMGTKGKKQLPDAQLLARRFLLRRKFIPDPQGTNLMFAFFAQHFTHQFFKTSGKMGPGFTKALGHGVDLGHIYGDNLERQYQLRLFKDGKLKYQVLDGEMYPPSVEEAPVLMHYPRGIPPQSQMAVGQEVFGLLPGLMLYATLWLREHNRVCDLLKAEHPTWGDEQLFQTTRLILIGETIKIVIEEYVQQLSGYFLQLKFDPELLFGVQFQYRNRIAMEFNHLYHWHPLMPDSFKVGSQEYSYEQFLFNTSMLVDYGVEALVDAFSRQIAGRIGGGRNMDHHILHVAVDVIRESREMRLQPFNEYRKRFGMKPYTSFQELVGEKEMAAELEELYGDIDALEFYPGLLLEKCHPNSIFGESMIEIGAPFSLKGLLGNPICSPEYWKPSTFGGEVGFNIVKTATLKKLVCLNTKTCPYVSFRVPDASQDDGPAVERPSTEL
Experiment [11] deals with D(1A) dopamine receptor (Homo sapiens, UniProt P21728).
Chain of D(1A) dopamine receptor (P21728 whole entry): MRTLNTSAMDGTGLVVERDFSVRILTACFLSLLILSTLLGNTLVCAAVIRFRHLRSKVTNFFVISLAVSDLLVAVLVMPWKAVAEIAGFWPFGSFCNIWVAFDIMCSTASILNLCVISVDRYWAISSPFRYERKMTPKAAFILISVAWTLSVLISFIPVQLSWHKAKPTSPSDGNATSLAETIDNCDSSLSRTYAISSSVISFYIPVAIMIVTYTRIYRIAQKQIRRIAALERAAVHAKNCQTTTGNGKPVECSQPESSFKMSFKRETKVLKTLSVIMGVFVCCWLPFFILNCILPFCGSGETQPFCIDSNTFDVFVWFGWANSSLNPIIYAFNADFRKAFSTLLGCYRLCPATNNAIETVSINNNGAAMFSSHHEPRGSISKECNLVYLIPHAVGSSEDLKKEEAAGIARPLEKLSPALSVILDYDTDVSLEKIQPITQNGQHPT
Experiment [12] has as its target T5, Thromboxane A2 receptor (Homo sapiens, UniProt P21731).
T5 sequence (P21731 whole entry): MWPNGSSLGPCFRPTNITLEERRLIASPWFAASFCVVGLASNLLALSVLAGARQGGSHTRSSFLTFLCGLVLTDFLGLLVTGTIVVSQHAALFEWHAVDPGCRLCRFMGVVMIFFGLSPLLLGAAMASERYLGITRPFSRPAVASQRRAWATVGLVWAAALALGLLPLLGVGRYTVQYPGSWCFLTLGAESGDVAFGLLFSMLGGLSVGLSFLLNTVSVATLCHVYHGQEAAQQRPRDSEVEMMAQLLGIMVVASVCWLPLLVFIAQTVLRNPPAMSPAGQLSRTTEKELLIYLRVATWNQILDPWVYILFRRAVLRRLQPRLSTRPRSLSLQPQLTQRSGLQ
The class given is functional, cell-based.

Experiment [13] deals with T5, Thromboxane A2 receptor. The class given is functional, cell-based. This is another data set of the same source.
Experiment [14] concerns the target cGMP-inhibited 3',5'-cyclic phosphodiesterase 3A (Homo sapiens, UniProt Q14432). The class given is functional.
For experiment [15], the target named is 5-hydroxytryptamine receptor 2B (Homo sapiens, UniProt P41595). The class given is functional, cell-based.
Chain of 5-hydroxytryptamine receptor 2B (P41595 whole entry): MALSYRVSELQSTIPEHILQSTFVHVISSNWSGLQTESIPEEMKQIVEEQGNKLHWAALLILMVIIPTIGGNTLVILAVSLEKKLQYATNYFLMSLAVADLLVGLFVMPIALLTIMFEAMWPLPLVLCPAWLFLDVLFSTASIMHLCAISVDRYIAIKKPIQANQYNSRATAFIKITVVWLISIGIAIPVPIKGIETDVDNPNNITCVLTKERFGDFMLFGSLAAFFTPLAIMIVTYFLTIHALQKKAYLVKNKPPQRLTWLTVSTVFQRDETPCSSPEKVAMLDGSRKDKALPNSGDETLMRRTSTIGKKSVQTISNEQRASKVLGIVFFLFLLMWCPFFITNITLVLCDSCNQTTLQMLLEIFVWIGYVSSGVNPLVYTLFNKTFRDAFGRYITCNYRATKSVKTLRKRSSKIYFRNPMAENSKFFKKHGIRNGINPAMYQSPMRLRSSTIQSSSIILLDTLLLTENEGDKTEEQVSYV

Some results are limits rather than exact numbers.

This note sets out measurements from ChEMBL document CHEMBL5291721, “A preclinical secondary pharmacology resource illuminates target-adverse drug reaction associations of marketed drugs” (Nat Commun, 2023).
Further: assay procedure not described here.

Chain of D(3) dopamine receptor (P35462 whole entry): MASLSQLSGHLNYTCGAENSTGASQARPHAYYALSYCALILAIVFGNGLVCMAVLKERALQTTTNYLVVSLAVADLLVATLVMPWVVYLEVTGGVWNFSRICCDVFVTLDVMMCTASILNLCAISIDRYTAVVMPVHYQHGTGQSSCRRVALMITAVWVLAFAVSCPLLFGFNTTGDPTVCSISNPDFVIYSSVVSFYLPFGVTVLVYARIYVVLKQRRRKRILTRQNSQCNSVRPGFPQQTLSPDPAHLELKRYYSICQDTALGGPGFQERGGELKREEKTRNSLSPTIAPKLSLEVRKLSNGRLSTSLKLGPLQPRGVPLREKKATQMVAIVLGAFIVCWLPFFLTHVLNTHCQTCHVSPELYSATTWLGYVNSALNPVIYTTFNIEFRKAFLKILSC
Chain of Sodium-dependent noradrenaline transporter (P23975 whole entry): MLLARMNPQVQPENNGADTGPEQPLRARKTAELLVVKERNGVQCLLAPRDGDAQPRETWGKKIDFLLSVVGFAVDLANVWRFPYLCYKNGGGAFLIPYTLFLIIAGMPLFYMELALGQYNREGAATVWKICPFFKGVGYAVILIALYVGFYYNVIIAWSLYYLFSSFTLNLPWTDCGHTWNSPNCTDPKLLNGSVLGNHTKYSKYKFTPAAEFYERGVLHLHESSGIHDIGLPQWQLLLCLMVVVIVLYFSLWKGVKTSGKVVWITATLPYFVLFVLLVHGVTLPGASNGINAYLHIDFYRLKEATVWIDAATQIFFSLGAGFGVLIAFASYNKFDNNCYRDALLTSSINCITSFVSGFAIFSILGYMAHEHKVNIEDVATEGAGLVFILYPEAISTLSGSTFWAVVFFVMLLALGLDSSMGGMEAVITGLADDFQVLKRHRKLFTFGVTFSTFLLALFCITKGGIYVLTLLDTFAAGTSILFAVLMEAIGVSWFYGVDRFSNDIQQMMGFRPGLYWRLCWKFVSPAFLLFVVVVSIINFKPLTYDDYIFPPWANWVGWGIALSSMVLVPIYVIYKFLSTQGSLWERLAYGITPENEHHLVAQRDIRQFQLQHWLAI
Chain of 3',5'-cyclic-AMP phosphodiesterase 4A (P27815 whole entry): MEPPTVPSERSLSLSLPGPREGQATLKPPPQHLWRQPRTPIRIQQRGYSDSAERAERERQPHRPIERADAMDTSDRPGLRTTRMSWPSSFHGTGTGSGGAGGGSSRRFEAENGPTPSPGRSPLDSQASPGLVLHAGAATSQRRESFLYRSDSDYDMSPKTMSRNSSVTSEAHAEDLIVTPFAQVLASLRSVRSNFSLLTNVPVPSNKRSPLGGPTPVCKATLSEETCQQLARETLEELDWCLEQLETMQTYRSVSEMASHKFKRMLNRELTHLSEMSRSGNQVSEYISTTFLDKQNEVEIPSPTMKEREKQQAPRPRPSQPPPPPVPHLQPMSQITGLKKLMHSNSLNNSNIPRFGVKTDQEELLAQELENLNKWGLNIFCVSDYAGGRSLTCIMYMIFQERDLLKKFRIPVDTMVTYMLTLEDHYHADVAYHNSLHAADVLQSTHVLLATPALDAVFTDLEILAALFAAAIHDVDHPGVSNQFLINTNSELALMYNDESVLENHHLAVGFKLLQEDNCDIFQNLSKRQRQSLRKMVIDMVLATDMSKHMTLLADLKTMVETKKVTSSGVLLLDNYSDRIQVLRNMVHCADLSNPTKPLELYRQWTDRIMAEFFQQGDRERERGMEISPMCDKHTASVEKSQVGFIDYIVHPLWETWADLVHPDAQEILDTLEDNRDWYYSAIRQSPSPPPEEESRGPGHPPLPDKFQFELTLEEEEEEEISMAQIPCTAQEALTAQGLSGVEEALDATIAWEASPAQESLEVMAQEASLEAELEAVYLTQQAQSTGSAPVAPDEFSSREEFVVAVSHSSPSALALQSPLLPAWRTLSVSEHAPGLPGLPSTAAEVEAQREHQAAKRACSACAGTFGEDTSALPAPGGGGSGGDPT
Chain of Sodium-dependent dopamine transporter (Q01959 whole entry): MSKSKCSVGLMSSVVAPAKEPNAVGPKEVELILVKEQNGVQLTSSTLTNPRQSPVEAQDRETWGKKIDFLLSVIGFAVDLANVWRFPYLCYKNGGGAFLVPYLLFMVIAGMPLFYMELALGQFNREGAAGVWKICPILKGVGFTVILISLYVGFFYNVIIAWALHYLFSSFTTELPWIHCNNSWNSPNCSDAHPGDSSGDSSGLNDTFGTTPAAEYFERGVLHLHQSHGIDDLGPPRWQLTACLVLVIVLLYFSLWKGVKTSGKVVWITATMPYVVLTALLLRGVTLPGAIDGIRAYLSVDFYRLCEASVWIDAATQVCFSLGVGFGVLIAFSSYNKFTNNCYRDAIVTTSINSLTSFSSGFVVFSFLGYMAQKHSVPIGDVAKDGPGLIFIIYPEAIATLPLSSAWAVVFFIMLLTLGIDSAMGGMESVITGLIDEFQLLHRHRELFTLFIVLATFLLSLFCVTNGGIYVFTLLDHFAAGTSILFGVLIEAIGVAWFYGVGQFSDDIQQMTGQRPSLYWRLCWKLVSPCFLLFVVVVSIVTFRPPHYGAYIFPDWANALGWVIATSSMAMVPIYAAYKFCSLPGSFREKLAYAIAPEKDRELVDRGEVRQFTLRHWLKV

As usually defined, the AC50 is the concentration at which the activity in the assay is half-maximal. As to `O=C(O)c1cc(=O)c2ccccc2o1` [CHROMOCARB], the AC50 in experiment [1], in [2], in experiment [3], in experiment [4], in experiment [5] and in experiment [6] was > 30 µM each time. For the same compound, the concentration at half-maximal activity (AC50) in experiment [7], in experiment [8], in experiment [9], in experiment [10], in [11] and in experiment [12] was > 30 µM each time. The AC50 in [13], in [14] and in experiment [15] was > 30 µM throughout.
`CN(CC(=O)O)C(=N)N` [CREATINE]: the AC50 in experiment [1], in experiment [2], in experiment [3], in [4], in [5] and in experiment [6] was > 30 µM throughout. For the same compound, the half-maximal activity concentration (AC50) in experiment [7], in experiment [8], in experiment [9], in experiment [10], in [11] and in experiment [12] was > 30 µM each time. Further, the AC50 in experiment [13], in experiment [14] and in experiment [15] was > 30 µM each time.
As to `N[C@@H](CSSC[C@H](N)C(=O)O)C(=O)O` [CYSTINE], the AC50 in experiment [1], in [2], in experiment [3], in experiment [4], in experiment [5] and in experiment [6] was > 30 µM each time. Further, the AC50 in experiment [7], in experiment [8], in experiment [9], in experiment [10], in [11] and in [12] was > 30 µM in each case. For the same compound, the AC50 in experiment [13], in experiment [14] and in [15] was > 30 µM each time.
With `C[C@]12CC[C@@H]3c4ccc(O)cc4CC[C@H]3[C@@H]1CC[C@@H]2OC(=O)CCC1CCCC1` [ESTRADIOL CYPIONATE], the half-maximal activity concentration (AC50) in experiment [1], in [2], in experiment [3], in experiment [4], in experiment [5] and in experiment [6] was > 30 µM each time. Further, the concentration at half-maximal activity (AC50) is > 30 µM in [7]; > 30 µM in experiment [8]; 17.6 µM in experiment [9]; > 30 µM in [10]; > 30 µM in experiment [11]; > 30 µM in [12]. Also, the values for the AC50 in [13], in experiment [14] and in experiment [15] were > 30 µM, 12.5 µM and > 30 µM, respectively.
As to `CC1(C)O[C@@H]2C[C@H]3[C@@H]4CCC5=CC(=O)CC[C@]5(C)[C@@]4(F)[C@@H](O)C[C@]3(C)[C@]2(C(=O)CCl)O1` [HALCINONIDE], the concentration at half-maximal activity (AC50) in experiment [1], in experiment [2], in experiment [3], in experiment [4], in [5] and in experiment [6] was > 30 µM each time. In addition, the AC50 in [7], in experiment [8], in experiment [9], in experiment [10], in [11] and in experiment [12] was > 30 µM in each case. Further, the AC50 in experiment [13], in experiment [14] and in experiment [15] was > 30 µM in each case.
Turning to `N=C(N)NCc1cccc([123I])c1` [IOBENGUANE I 123], the half-maximal activity concentration (AC50) in experiment [1] is > 30 µM; in experiment [2], 6.39 µM; in experiment [3] it was 2.49 µM; in experiment [4], 26.4 µM; in experiment [5] it was 8.75 µM; in [6] it was 0.488 µM. Also, the AC50 in experiment [7] is > 30 µM; in experiment [8] it was 8.17 µM; in experiment [9], > 30 µM; in experiment [10], > 30 µM; in [11], 13.4 µM; in experiment [12], > 30 µM. Moreover, the concentration at half-maximal activity (AC50) in experiment [13], in experiment [14] and in experiment [15] was > 30 µM throughout.
As to `CC(C)(N)C(=O)N[C@H](Cc1c[nH]c2ccccc12)C(=O)N[C@H](Cc1c[nH]c2ccccc12)NC=O` [MACIMORELIN], the AC50 in [1], in [2], in experiment [3], in [4], in experiment [5] and in experiment [6] was > 30 µM each time. Also, the AC50 in experiment [7], in [8], in experiment [9], in experiment [10], in experiment [11] and in [12] was > 30 µM throughout. Further, the AC50 in [13], in experiment [14] and in [15] was > 30 µM throughout.
In the case of `C=C1c2c(Cl)ccc(O)c2C(=O)C2=C(O)[C@]3(O)C(=O)C(C(N)=O)=C(O)[C@@H](N(C)C)[C@@H]3[C@@H](O)[C@H]12` [MECLOCYCLINE], the AC50 in experiment [1], in [2], in experiment [3], in [4], in [5] and in experiment [6] was > 30 µM throughout. Also, the AC50 in experiment [7], in experiment [8], in experiment [9], in experiment [10], in [11] and in experiment [12] was > 30 µM in each case. For the same compound, the AC50 in [13], in experiment [14] and in experiment [15] was > 30 µM in each case.
